Test in all cases: Minimal inhibitory concentration (MHK) on DST agar
Assay type in all cases: cell-based

Assay [1] relates to Acinetobacter anitr. 5I-156. The following applies: ANITR.5I156. The source says: (§1) Die minimalen Hemmkonzentrationen (MHK) der (4S,5S,6S)--6-[(R)-1-Hydroxyäthyl]-4-methoxy-7-oxo -1-azabicyclo-[3.2.0]hept-2-en-2-carbonsäure (Verbindung A), der (4R,5S,-6S)-6-[(R)-1-Hydroxyäthyl]-3-[[(S)-1-(1-iminoäthyl) -3-pyrrolidinyl]thio]-4-methoxy-7-oxo -1-azabicyclo[3.2.0]-hept-2-en -2-carbonsäure (Verbindung B), der (4R.5S,6S)-4--Aethoxy-6-[(R)-1-hydroxyäthyl]-3-[(S) -3-pyrrolidinyl- thio]-7-oxo-1-azabicyclo[3.2.0]hept-2-en -2-carbonsäure (Verbindung C) und der (4R,5S,6S)-4-Aethoxy-6-[(R)-1--hydroxyäthyl]-3-[[(S)-1 -(1-iminoäthyl)-3-pyrrolidinyl]-thio]-7-oxo-1 -azabicyclo[3.2.0]hept-2-en-2-carbonsäure (Verbindung D) gegen eine Reihe pathogener Mikroorganismen wurden auf DST-Agar (Diagnostic Sensitivity Test Agar) bestimmt. Die erhaltenen Resultate sind in der nachfolgenden Tabelle aufgeführt:
(§2) Die ß-Lactamase produzierenden Organismen sind mit einem ^* bezeichnet.

For another assay, the system named is E. coli 1346. The conditions noted are these: Escherichia coli.
Source text: as §1, §2

A further assay relates to E. coli 1527 E*. The following applies: Escherichia coli, E. coli 1527 E* (ß-Lactamase producing).
Source text: as §1, §2

The test system of the next assay is E. coli 25922. The conditions noted are these: Escherichia coli.
Source text: as §1, §2

The next assay deals with E. coli TEM 1*. The following applies: Escherichia coli, read-out: MHK.
Source text: as §1, §2

In assay [2] the test system is Enterobacter cloacae 15M*. The following applies: Enterobacter cloacae 15M* (ß-Lactamase producing).
Source text: as §1, §2

For assay [3], the system named is Enterobacter cloacae 908*. The conditions noted are these: Enterobacter cloacae 908* (ß-Lactamase producing).
Source text: as §1, §2

The next assay deals with Klebs. aerogenes 1082E*. The conditions noted are these: Klebsiella aerogenes, Klebs. aerogenes 1082E* (ß-Lactamase producing).
Source text: as §1, §2

A further assay deals with Klebs. pneumoniae 418*. The conditions noted are these: Klebsiella pneumoniae, Klebs. pneumoniae 418* (ß-Lactamase producing).
Source text: as §1, §2

The next assay relates to Prot. mirabilis 2117*. The following applies: Proteus mirabilis, Prot. mirabilis 2117* (ß-Lactamase producing).
Source text: as §1, §2

The next assay relates to Prot. mirabilis 29H. The following applies: Proteus mirabilis.
Source text: as §1, §2

A further assay relates to Prot. vulgaris 1028*. The conditions noted are these: Proteus vulgaris, Prot. vulgaris 1028* (ß-Lactamase producing).
Source text: as §1, §2

The test system of a further assay is Pseudomonas aer. 1559E*. The following applies: Pseudomonas aer. 1559E* (ß-Lactamase producing).
Source text: as §1, §2

For the next assay, the system named is Pseudomonas aer. BA*. The following applies: Pseudomonas aer. BA* (ß-Lactamase producing).
Source text: as §1, §2

For the next assay, the system named is Salmonella typh. BA.
Source text: as §1, §2

Assay [4] relates to Serratia marcescens 69438.
Source text: as §1, §2

In assay [5] the test system is Serratia marcescens 803/15*. The conditions noted are these: Serratia marcescens 803/15* (ß-Lactamase producing).
Source text: as §1, §2

The next assay deals with Staph. aureus 6538. The following applies: Staphylococcus aureus.
Source text: as §1, §2

A further assay deals with Staph. aureus 887*. The conditions noted are these: Staphylococcus aureus, Staph. aureus 887* (ß-Lactamase producing).
Source text: as §1, §2

For the next assay, the system named is Strept. faecalis 6. The conditions noted are these: Enterococcus faecalis.
Source text: as §1, §2

Values after ≈ are worked out from the molar mass of the structure shown.

As for `CO[C@H]1C=C(C(=O)O)N2C(=O)[C@H]([C@@H](C)O)[C@@H]12` [Verbindung A, (4S,5S,6S)--6-[(R)-1-Hydroxyäthyl]-4-methoxy-7-oxo-1-azabicyclo-[3.2.0]hept-2-en-2-carbonsäure], the MIC in assay [1] turned out to be 2 µg/mL (≈ 8.8 µM); against E. coli 1346, 0.5 µg/mL (≈ 2.2 µM); in the assay with E. coli 1527 E* it was 0.5 µg/mL (≈ 2.2 µM); in the assay with E. coli 25922, 1 µg/mL (≈ 4.4 µM); in the assay with E. coli TEM 1* it was 1 µg/mL (≈ 4.4 µM); in [2], 1 µg/mL (≈ 4.4 µM). The MIC in assay [3] was determined as 1 µg/mL (≈ 4.4 µM); in the assay on Klebs. aerogenes 1082E* it was 1 µg/mL (≈ 4.4 µM); in the assay on Klebs. pneumoniae 418* it was 0.5 µg/mL (≈ 2.2 µM); against Prot. mirabilis 2117* it was 4 µg/mL (≈ 17.6 µM); in the assay with Prot. mirabilis 29H it was 8 µg/mL (≈ 35.2 µM); against Prot. vulgaris 1028* it was 4 µg/mL (≈ 17.6 µM). Moreover, the MIC in the assay with Pseudomonas aer. 1559E* was over 32 µg/mL; in the assay with Pseudomonas aer. BA* it was 32 µg/mL (≈ 141 µM); against Salmonella typh. BA it was 1 µg/mL (≈ 4.4 µM); in assay [4] it was 2 µg/mL (≈ 8.8 µM); in assay [5] it was 2 µg/mL (≈ 8.8 µM); in the assay on Staph. aureus 6538, 0.5 µg/mL (≈ 2.2 µM). Moreover, the values for the MIC with Staph. aureus 887* and against Strept. faecalis 6 were 1 µg/mL (≈ 4.4 µM) and 32 µg/mL (≈ 141 µM), respectively.

For the compound `CCO[C@H]1C(S[C@H]2CCNC2)=C(C(=O)O)N2C(=O)[C@H]([C@@H](C)O)[C@@H]12` [Verbindung C, (4R.5S,6S)-4--Aethoxy-6-[(R)-1-hydroxyäthyl]-3-[(S) -3-pyrrolidinyl-thio]-7-oxo-1-azabicyclo[3.2.0]hept-2-en-2-carbonsäure], the MIC in assay [1] is 1 µg/mL (≈ 2.92 µM); against E. coli 1346, 0.5 µg/mL (≈ 1.46 µM); in the assay on E. coli 1527 E*, 0.25 µg/mL (≈ 0.73 µM); in the assay on E. coli 25922 it was 0.5 µg/mL (≈ 1.46 µM); with E. coli TEM 1*, 0.5 µg/mL (≈ 1.46 µM); in assay [2] it was 1 µg/mL (≈ 2.92 µM). Also, the MIC was 1 µg/mL (≈ 2.92 µM) in assay [3]; 2 µg/mL (≈ 5.84 µM) against Klebs. aerogenes 1082E*; 2 µg/mL (≈ 5.84 µM) against Klebs. pneumoniae 418*; 16 µg/mL (≈ 46.7 µM) with Prot. mirabilis 2117*; 32 µg/mL (≈ 93.5 µM) against Prot. mirabilis 29H; 32 µg/mL (≈ 93.5 µM) against Prot. vulgaris 1028*. For the same compound, the MIC against Pseudomonas aer. 1559E* was determined as 64 µg/mL (≈ 187 µM); in the assay with Pseudomonas aer. BA* it was 32 µg/mL (≈ 93.5 µM); in the assay on Salmonella typh. BA, 0.5 µg/mL (≈ 1.46 µM); in assay [4], 8 µg/mL (≈ 23.4 µM); in [5] it was 4 µg/mL (≈ 11.7 µM); in the assay with Staph. aureus 6538 it was 0.25 µg/mL (≈ 0.73 µM). For the same compound, the MIC stood at 0.5 µg/mL (≈ 1.46 µM) in the assay on Staph. aureus 887* and 32 µg/mL (≈ 93.5 µM) against Strept. faecalis 6.

For `CCO[C@H]1C(S[C@H]2CCN(C(C)=N)C2)=C(C(=O)O)N2C(=O)[C@H]([C@@H](C)O)[C@@H]12` [Verbindung D, (4R,5S,6S)-4-Aethoxy-6-[(R)-1--hydroxyäthyl]-3-[[(S)-1-(1-iminoäthyl)-3-pyrrolidinyl]-thio]-7-oxo-1-azabicyclo[3.2.0]hept-2-en-2-carbonsäure], the MIC in assay [1] came out at 2 µg/mL (≈ 5.22 µM); against E. coli 1346, 1 µg/mL (≈ 2.61 µM); against E. coli 1527 E*, 1 µg/mL (≈ 2.61 µM); in the assay with E. coli 25922, 2 µg/mL (≈ 5.22 µM); in the assay on E. coli TEM 1*, 0.5 µg/mL (≈ 1.3 µM); in assay [2], 4 µg/mL (≈ 10.4 µM). The MIC in [3] was found to be 4 µg/mL (≈ 10.4 µM); with Klebs. aerogenes 1082E*, 2 µg/mL (≈ 5.22 µM); against Klebs. pneumoniae 418* it was 2 µg/mL (≈ 5.22 µM); in the assay on Prot. mirabilis 2117* it was 16 µg/mL (≈ 41.7 µM); against Prot. mirabilis 29H, 32 µg/mL (≈ 83.4 µM); against Prot. vulgaris 1028*, 16 µg/mL (≈ 41.7 µM). For the same compound, the MIC was 64 µg/mL (≈ 167 µM) with Pseudomonas aer. 1559E*; 64 µg/mL (≈ 167 µM) against Pseudomonas aer. BA*; 2 µg/mL (≈ 5.22 µM) against Salmonella typh. BA; 8 µg/mL (≈ 20.9 µM) in [4]; 8 µg/mL (≈ 20.9 µM) in assay [5]; 0.25 µg/mL (≈ 0.652 µM) in the assay on Staph. aureus 6538. Further, the MIC is 0.5 µg/mL (≈ 1.3 µM) against Staph. aureus 887* and 32 µg/mL (≈ 83.4 µM) against Strept. faecalis 6.

Turning to `CO[C@H]1C(S[C@H]2CCN(C(C)=N)C2)=C(C(=O)O)N2C(=O)[C@H]([C@@H](C)O)[C@@H]12` [Verbindung B, (4R,5S,-6S)-6-[(R)-1-Hydroxyäthyl]-3-[[(S)-1-(1-iminoäthyl) -3-pyrrolidinyl]thio]-4-methoxy-7-oxo-1-azabicyclo[3.2.0]-hept-2-en-2-carbonsäure], the MIC in assay [1] was 0.4 µg/mL (≈ 1.08 µM); with E. coli 1346, 0.4 µg/mL (≈ 1.08 µM); with E. coli 1527 E* it was 0.4 µg/mL (≈ 1.08 µM); against E. coli 25922, 0.8 µg/mL (≈ 2.17 µM); in assay [2], 0.8 µg/mL (≈ 2.17 µM); in assay [3], 0.8 µg/mL (≈ 2.17 µM). Moreover, the MIC against Klebs. aerogenes 1082E* was found to be 0.8 µg/mL (≈ 2.17 µM); in the assay on Klebs. pneumoniae 418*, 0.4 µg/mL (≈ 1.08 µM); in the assay with Prot. mirabilis 2117*, 12.5 µg/mL (≈ 33.8 µM); against Prot. mirabilis 29H, 25 µg/mL (≈ 67.7 µM); against Prot. vulgaris 1028* it was 12.5 µg/mL (≈ 33.8 µM); against Pseudomonas aer. 1559E*, 25 µg/mL (≈ 67.7 µM). Moreover, the MIC worked out at 25 µg/mL (≈ 67.7 µM) with Pseudomonas aer. BA*; 0.8 µg/mL (≈ 2.17 µM) in the assay with Salmonella typh. BA; 3.1 µg/mL (≈ 8.39 µM) in assay [4]; 3.1 µg/mL (≈ 8.39 µM) in assay [5]; 0.1 µg/mL (≈ 0.271 µM) in the assay with Staph. aureus 6538; 0.2 µg/mL (≈ 0.541 µM) in the assay on Staph. aureus 887*. Further, in the assay on Strept. faecalis 6, the MIC came out at 12.5 µg/mL (≈ 33.8 µM).

Values taken from patent EP0170019A1, “Carbapenems having an ether group at position 4” (F. HOFFMANN-LA ROCHE & CO. Aktiengesellschaft, priority 1984, dated 1986).
